Test results taken from patent US10653131B2 (priority 2013, dated 2020).

System: spores of Bacillus thuringiensis

O=[N+]([O-])O [nitric acid]
destruction, inactivation of spores: ensured destruction, inactivation
